In patent US4301177A, “(3-Methyl-2-butenyl)propanedioic acid mono (1,2-diphenylhydrazide) and salts thereof” (Istituto de Angeli S.p.A., priority 1979, dated 1981):
Counter-ions that a name gives are not always drawn.

Experiments:
rats [1] = assay: Effect on arthritis induced in rats by Freund's adjuvant (Table II); format: in vivo, male Sprague-Dawley rats; details: day 20
mice = assay: Analgesic activity, hot plate test in mice (Table III); format: in vivo, male Swiss mice
Procedure: (§1) In the present study the test compounds were administered perorally by means of a stomach tube as an aqueous suspension in 5% acacia gum at a constant volume of 10 ml/kg to male Swiss mice and male Sprague-Dawley rats. Control rats and mice were given a corresponding volume of the aqueous suspension medium. The results were statistically evaluated by Dunnett's test (C. V. Dunnett.: J.A. Stat. Ass., 40, 1096, 1955).
The analgesic activity was evaluated in mice by the hot plate test according to Janssen and Jageneau (J.Pharm.Pharmac., 9, 381, 1957).
The plate temperature was kept constant at 55° C.; the reaction time was determined before and 30, 60, 90 and 120 minutes after oral administration of the test compound. Average values after administration of the test compound were compared to those obtained before treatment.

rats [2] = assay: Analgesic-anti-inflammatory activity, Randall and Selitto, brewer's yeast inflamed paw in rats (Table IV); format: in vivo, male Sprague-Dawley rats; details: for Analgesic Index: ratio to controls (1.0)
Procedure: as §1
4. Analgesic-anti-inflammatory activity
The analgesic-anti-inflammatory activity was evaluated in rats by the method of Randall and Selitto (Arch. Int. Pharmacodyn., 111, 409, 1957), using an analgesimeter to measure the minimum load that must be applied to a rat's hind paw to elicit a painful stimulus.
Both the controls and the experimental rats were injected into the right hind paw with 0.1 ml of 20% brewer's yeast in sterile saline immediately before the administration of the test compound.
The volume of the inflamed right hind paw was measured 1, 2 and 4 hours after the administration of the test compound.
The analgesic-anti-inflammatory activity was evaluated using an "analgesic index" expressed as a ratio between the sum of the average weights (grams) necessary to provoke a painful stimulus at different times in treated and control animals.

rats [3] = assay: Antipyretic activity, fever induced by brewer's yeast in rats (Table V); format: in vivo, male Sprague-Dawley rats
Procedure: as §1
The antipyretic activity was investigated in rats by the method of Niemegeers et al. (see Arzneim.Forsch. 25, 1519, 1975). The rectal temperature was measured immediately before and 4 hours after the subcutaneous injection of 1 ml/100 g body weight of a 15% brewer's yeast suspension in 1% acacia gum.
The test compound was administered orally to groups of 5 different rats per dose 4 hours after the yeast injection. The rectal temperature was measured 0.5, 1, 1.5, 2, 2.5, 3 and 19 hours after treatment.
(§2) Average values of the temperatures obtained in the treated rats were compared with those of control rats.

rats [4] = assay: Effect on normal temperature of rats (Table VI); format: in vivo, male Sprague-Dawley rats
Procedure: as §1
6. Effect on normal temperature of rats
The rectal temperature was measured at 30-minute intervals before and after administration of the test compound, that is, at -1.5, -1, -0.5, 0.5, 1, 1.5 and 2 hours, using groups of 10 rats each for each dosage level.
as §2

in vivo = details: rat, in vivo, po
Procedure: (§3) In the present study the test compounds were administered perorally by means of a stomach tube as an aqueous suspension in 5% acacia gum at a constant volume of 10 ml/kg to male Swiss mice and male Sprague-Dawley rats. Control rats and mice were given a corresponding volume of the aqueous suspension medium.
(§4) The acute toxicity was determined on groups of 10 rats treated orally with 500, 1000, 1500 and 2000 mg/kg of the test compound by means of a stomach tube.

rats [5] = assay: in vivo
Procedure: as §3, §4

rats [6] = assay: Ulcerogenic effect, gastric lesions in rats (Table VIII); format: in vivo, male Sprague-Dawley rats; details: for Body weight, mean ± standard deviation / % animals with gastric lesions / Ulcerogenic Index: single dose; for % animals with gastric lesions / Ulcerogenic Index: 16 h
Procedure: as §1
The ulcerogenic effect was determined in rats by the method of Niemegeers et al. (Arzneimittel-Forschung 25, 1537, 1975). A single oral dose was administered to groups of 15 rats fasted for 9 hours before treatment and kept fasting throughout the whole experimental period. The animals were sacrificed 16 hours after treatment; the severity of lesions was scored according to an arbitrary scale ranging from + to ++++. For each group of rats, an ulcerogenic index was calculated according to Pauls et al., (Gastroenterology 8, 774, 1947).

## CC(C)=CCC(C(=O)O)C(=O)N(Nc1ccccc1)c1ccccc1 (stereo not drawn) [A, Calcium salt of (3-methyl-2-butenyl)propanedioic acid mono(1,2-diphenylhydrazide)]
Rats [1]; 40 mg/kg oral
  % Inhibition: 34%
Rats [1]; 80 mg/kg oral
  % Inhibition: 35%
Rats [1]; 160 mg/kg oral
  % Inhibition: 45%
mice; 50 mg/kg oral, 0 (before administration)
  Reaction time: 15.40 ± 2.76 s
mice; 50 mg/kg oral, 30 min
  Reaction time: 16.70 ± 3.86 s
mice; 100 mg/kg oral, 0 (before administration)
  Reaction time: 12.90 ± 3.21 s
mice; 200 mg/kg oral, 0 (before administration)
  Reaction time: 14.40 ± 2.95 s
mice; summary, Table III
  analgesic activity in the hot plate test compared with bumadizon calcium: higher, begins earlier and lasts longer than that of bumadizon calcium
Rats [2]; 40 mg/kg oral, 1 h
  Mean of the weights eliciting painful stimulus: 196.2 grams
Rats [2]; 40 mg/kg oral, 2 h
  Mean of the weights eliciting painful stimulus: 128.8 grams
Rats [2]; 40 mg/kg oral, 4 h
  Mean of the weights eliciting painful stimulus: 95.0 grams
Rats [2]; 40 mg/kg oral
  Analgesic Index: 1.49
Rats [2]; 80 mg/kg oral, 1 h
  Mean of the weights eliciting painful stimulus: 192.6 grams
Rats [2]; 80 mg/kg oral, 2 h
  Mean of the weights eliciting painful stimulus: 147.6 grams
Rats [2]; 80 mg/kg oral, 4 h
  Mean of the weights eliciting painful stimulus: 146.2 grams
Rats [2]; 80 mg/kg oral
  Analgesic Index: 1.72
Rats [2]; 160 mg/kg oral, 1 h
  Mean of the weights eliciting painful stimulus: 245.0 grams
Rats [2]; 160 mg/kg oral, 2 h
  Mean of the weights eliciting painful stimulus: 171.2 grams
Rats [2]; 160 mg/kg oral, 4 h
  Mean of the weights eliciting painful stimulus: 143.8 grams
Rats [2]; 160 mg/kg oral
  Analgesic Index: 1.98
Rats [3]; 40 mg/kg oral, 0 h (4 h after yeast, before treatment)
  Rectal temperature: 38.00 °C
Rats [3]; 40 mg/kg oral, 0.5 h
  Rectal temperature: 37.51 °C
Rats [3]; 40 mg/kg oral, 1 h
  Rectal temperature: 38.41 °C
Rats [3]; 40 mg/kg oral, 1.5 h
  Rectal temperature: 38.24 °C
Rats [3]; 40 mg/kg oral, 2 h
  Rectal temperature: 38.23 °C
Rats [3]; 40 mg/kg oral, 2.5 h
  Rectal temperature: 38.28 °C
Rats [3]; 40 mg/kg oral, 3 h
  Rectal temperature: 38.10 °C
Rats [3]; 40 mg/kg oral, 19 h
  Rectal temperature: 37.51 °C
Rats [3]; 40 mg/kg oral, -4 h (before yeast)
  Rectal temperature: 37.00 °C
Rats [3]; 80 mg/kg oral, 0 h (4 h after yeast, before treatment)
  Rectal temperature: 38.14 °C
Rats [3]; 80 mg/kg oral, 0.5 h
  Rectal temperature: 37.16 °C
Rats [3]; 80 mg/kg oral, 1 h
  Rectal temperature: 37.47 °C
Rats [3]; 80 mg/kg oral, 1.5 h
  Rectal temperature: 37.54 °C
Rats [3]; 80 mg/kg oral, 2 h
  Rectal temperature: 37.57 °C
Rats [3]; 80 mg/kg oral, 2.5 h
  Rectal temperature: 37.47 °C
Rats [3]; 80 mg/kg oral, 3 h
  Rectal temperature: 37.47 °C
Rats [3]; 80 mg/kg oral, 19 h
  Rectal temperature: 36.75 °C
Rats [3]; 80 mg/kg oral, -4 h (before yeast)
  Rectal temperature: 37.06 °C
Rats [3]; 160 mg/kg oral, 0 h (4 h after yeast, before treatment)
  Rectal temperature: 38.06 °C
Rats [3]; 160 mg/kg oral, 0.5 h
  Rectal temperature: 37.14 °C
Rats [3]; 160 mg/kg oral, 1 h
  Rectal temperature: 37.20 °C
Rats [3]; 160 mg/kg oral, 1.5 h
  Rectal temperature: 37.62 °C
Rats [3]; 160 mg/kg oral, 2 h
  Rectal temperature: 37.67 °C
Rats [3]; 160 mg/kg oral, 2.5 h
  Rectal temperature: 37.58 °C
Rats [3]; 160 mg/kg oral, 3 h
  Rectal temperature: 37.76 °C
Rats [3]; 160 mg/kg oral, 19 h
  Rectal temperature: 37.86 °C
Rats [3]; 160 mg/kg oral, -4 h (before yeast)
  Rectal temperature: 36.46 °C
Rats [4]; 40 mg/kg oral, 0.5 h
  Rectal temperature (normal rats): 35.96 °C
Rats [4]; 40 mg/kg oral, 1 h
  Rectal temperature (normal rats): 36.28 °C
Rats [4]; 40 mg/kg oral, 1.5 h
  Rectal temperature (normal rats): 36.34 °C
Rats [4]; 40 mg/kg oral, 2 h
  Rectal temperature (normal rats): 36.54 °C
Rats [4]; 40 mg/kg oral, -0.5 h (before administration)
  Rectal temperature (normal rats): 36.20 °C
Rats [4]; 40 mg/kg oral, -1 h (before administration)
  Rectal temperature (normal rats): 36.62 °C
Rats [4]; 40 mg/kg oral, -1.5 h (before administration)
  Rectal temperature (normal rats): 36.81 °C
Rats [4]; 80 mg/kg oral, 0.5 h
  Rectal temperature (normal rats): 36.25 °C
Rats [4]; 80 mg/kg oral, 1 h
  Rectal temperature (normal rats): 36.12 °C
Rats [4]; 80 mg/kg oral, 1.5 h
  Rectal temperature (normal rats): 36.14 °C
Rats [4]; 80 mg/kg oral, 2 h
  Rectal temperature (normal rats): 36.15 °C
Rats [4]; 80 mg/kg oral, -0.5 h (before administration)
  Rectal temperature (normal rats): 36.33 °C
Rats [4]; 80 mg/kg oral, -1 h (before administration)
  Rectal temperature (normal rats): 36.42 °C
Rats [4]; 80 mg/kg oral, -1.5 h (before administration)
  Rectal temperature (normal rats): 36.75 °C
Rats [4]; 160 mg/kg oral, 0.5 h
  Rectal temperature (normal rats): 35.71 °C
Rats [4]; 160 mg/kg oral, 1 h
  Rectal temperature (normal rats): 35.85 °C
Rats [4]; 160 mg/kg oral, 1.5 h
  Rectal temperature (normal rats): 35.91 °C
Rats [4]; 160 mg/kg oral, 2 h
  Rectal temperature (normal rats): 35.86 °C
Rats [4]; 160 mg/kg oral, -0.5 h (before administration)
  Rectal temperature (normal rats): 36.22 °C
Rats [4]; 160 mg/kg oral, -1 h (before administration)
  Rectal temperature (normal rats): 36.32 °C
Rats [4]; 160 mg/kg oral, -1.5 h (before administration)
  Rectal temperature (normal rats): 37.01 °C
In vivo
  LD50 at 168 h: 1060 mg/kg
Rats [5]; rat, in vivo, po
  LD50 confidence limits: 721.30 to 1550.51 mg/kg
Rats [5]; summary, Table VII
  toxicity compared with prior art compound: less toxic
Rats [6]; 40 mg/kg oral
  Body weight, mean ± standard deviation: 206.67 ± 9.00 grams
  % animals with gastric lesions: 0%
  Ulcerogenic Index: 0
Rats [6]; 80 mg/kg oral
  Body weight, mean ± standard deviation: 205.33 ± 6.40 grams
  % animals with gastric lesions: 0%
  Ulcerogenic Index: 0
Rats [6]; 160 mg/kg oral
  Body weight, mean ± standard deviation: 212.67 ± 12.23 grams
  % animals with gastric lesions: 0%
  Ulcerogenic Index: 0
Rats [6]; 320 mg/kg oral
  Body weight, mean ± standard deviation: 218.67 ± 6.40 grams
  % animals with gastric lesions: 46.66%
  Ulcerogenic Index: 71.38
Rats [6]; summary, Table VIII
  ulcerogenic effect compared with prior art compound: less ulcerogenic
